In ChEMBL document CHEMBL2177079, “Free-Wilson and structural approaches to co-optimizing human and rodent isoform potency for 11β-hydroxysteroid dehydrogenase type 1 (11β-HSD1) inhibitors” (J Med Chem, 2012):

test system: not listed separately; test: Oral bioavailability in Han Wistar rat at 7.4 to 14.7 umol/kg; format: ADME, organism-based; details: Han Wistar, in vivo

Compound | bioavailability
O=C(N[C@H]1C2CC3CC1C[C@](O)(C3)C2)c1cnc(N[C@@H]2CCOC2)nc1OC1CCC1 | 99%
O=C(N[C@H]1C2CC3CC1C[C@](O)(C3)C2)c1cnc(N[C@H]2CCC[C@H]2O)nc1C1CCCC1 | 17%
O=C(N[C@H]1C2CC3CC1C[C@](O)(C3)C2)c1cnc(NC2CCOCC2)nc1OC1CCC1 | 83%
O=C(N[C@H]1C2CC3CC1C[C@](O)(C3)C2)c1cnc(N[C@H]2CCOC2)nc1C1CC1 | 73%
CC(C)Oc1nc(NC2COC2)ncc1C(=O)N[C@H]1C2CC3CC1C[C@](O)(C3)C2 | 57%
O=C(N[C@H]1C2CC3CC1C[C@](O)(C3)C2)c1cnc(N[C@H]2CCOC2)nc1C1CCC1 | 82%
O=C(N[C@H]1C2CC3CC1C[C@](O)(C3)C2)c1cnc(N[C@H]2CCOC2)nc1OC1CCC1 | 99%
O=C1C[C@H](CNc2ncc(C(=O)N[C@H]3C4CC5CC3C[C@](O)(C5)C4)c(C3CCCC3)n2)CN1 | 9%
CC(C)Oc1nc(N[C@H]2CCOC2)ncc1C(=O)N[C@H]1C2CC3CC1C[C@](O)(C3)C2 | 83%
O=C(N[C@H]1C2CC3CC1C[C@](O)(C3)C2)c1cnc(NC2CCOCC2)nc1C1CC1 | 53%
CC(=O)N1CCC(Nc2ncc(C(=O)N[C@H]3C4CC5CC3C[C@](O)(C5)C4)c(C3CCCC3)n2)CC1 | 46%
O=C(N[C@H]1C2CC3CC1C[C@](O)(C3)C2)c1cnc(N[C@@H]2CCOC2)nc1C1CCC1 | 99%
O=C(N[C@H]1C2CC3CC1C[C@](O)(C3)C2)c1cnc(NCCO)nc1OC1CCC1 | 51%
CC(=O)N1CC[C@@H](Nc2ncc(C(=O)N[C@H]3C4CC5CC3C[C@](O)(C5)C4)c(C3CCCC3)n2)C1 | 18%
O=C(N[C@H]1C2CC3CC1C[C@](O)(C3)C2)c1cnc(NC2COC2)nc1OC1CCC1 | 19%
O=C(N[C@H]1C2CC3CC1C[C@](O)(C3)C2)c1cnc(N[C@@H]2CCOC2)nc1C1CCCC1 | 63%
CC(C)Oc1nc(N[C@@H]2CCOC2)ncc1C(=O)N[C@H]1C2CC3CC1C[C@](O)(C3)C2 | 62%
C[C@@H](O)CNc1ncc(C(=O)N[C@H]2C3CC4CC2C[C@](O)(C4)C3)c(C2CCCC2)n1 | 68%
CC(C)(O)CNc1ncc(C(=O)N[C@H]2C3CC4CC2C[C@](O)(C4)C3)c(C2CCC2)n1 | 86%
CC(C)(O)CNc1ncc(C(=O)N[C@H]2C3CC4CC2C[C@](O)(C4)C3)c(C2CCCC2)n1 | 33%

molecular target: 11-beta-hydroxysteroid dehydrogenase 1 (Mus musculus, UniProt P50172); test: Inhibition of mouse 11beta-HSD1 by HTRF assay; details: not given
Sequence (P50172 whole entry): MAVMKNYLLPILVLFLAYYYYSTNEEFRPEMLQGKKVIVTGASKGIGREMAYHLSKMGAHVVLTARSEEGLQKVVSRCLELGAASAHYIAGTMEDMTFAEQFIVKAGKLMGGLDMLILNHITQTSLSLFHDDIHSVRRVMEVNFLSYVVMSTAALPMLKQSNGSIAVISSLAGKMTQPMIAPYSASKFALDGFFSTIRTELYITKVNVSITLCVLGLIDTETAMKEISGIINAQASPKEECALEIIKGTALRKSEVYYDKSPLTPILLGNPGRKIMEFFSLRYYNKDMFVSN

Compound | IC50
CC(C)(CO)Nc1ncc(C(=O)N[C@H]2C3CC4CC2C[C@](O)(C4)C3)c(C2CCCC2)n1 | 32 nM
O=C(N[C@H]1C2CC3CC1C[C@](O)(C3)C2)c1cnc(N[C@H]2CCNC2=O)nc1C1CCCC1 | 55 nM
O=C(N[C@H]1C2CC3CC1C[C@](O)(C3)C2)c1cnc(NC2CCOCC2)nc1C1CCCC1 | 38 nM
C[C@H](O)CNc1ncc(C(=O)N[C@H]2C3CC4CC2C[C@](O)(C4)C3)c(C2CCCC2)n1 | 42 nM
O=C(N[C@H]1C2CC3CC1C[C@](O)(C3)C2)c1cnc(NC2COC2)nc1C1CCCC1 | 66 nM
O=C(N[C@H]1C2CC3CC1C[C@](O)(C3)C2)c1cnc(N[C@@H]2CCOC2)nc1OC1CCC1 | 16 nM
O=C(N[C@H]1C2CC3CC1C[C@](O)(C3)C2)c1cnc(N[C@H]2CCC[C@H]2O)nc1C1CCCC1 | 36 nM
CC(C)(CO)Nc1ncc(C(=O)N[C@H]2C3CC4CC2C[C@](O)(C4)C3)c(C2CC2)n1 | 20 nM
O=C(N[C@H]1C2CC3CC1C[C@](O)(C3)C2)c1cnc(NC2CCOCC2)nc1OC1CCC1 | 19 nM
CC(C)(O)CNc1ncc(C(=O)N[C@H]2C3CC4CC2C[C@](O)(C4)C3)c(C2CC2)n1 | 31 nM
O=C(N[C@H]1C2CC3CC1C[C@](O)(C3)C2)c1cnc(NC2COC2)nc1C1CC1 | 38 nM
CC(C)Oc1nc(NC2COC2)ncc1C(=O)N[C@H]1C2CC3CC1C[C@](O)(C3)C2 | 53 nM
O=C(N[C@H]1C2CC3CC1C[C@](O)(C3)C2)c1cnc(NC[C@H]2CCCO2)nc1C1CCCC1 | 42 nM
O=C(N[C@H]1C2CC3CC1C[C@](O)(C3)C2)c1cnc(N[C@H]2CCOC2)nc1C1CCC1 | 42 nM
O=C(N[C@H]1C2CC3CC1C[C@](O)(C3)C2)c1cnc(N[C@H]2CCOC2)nc1OC1CCC1 | 22 nM
O=C1C[C@H](CNc2ncc(C(=O)N[C@H]3C4CC5CC3C[C@](O)(C5)C4)c(C3CCCC3)n2)CN1 | 85 nM

Compound | IC50
O=C(N[C@H]1C2CC3CC1C[C@](O)(C3)C2)c1cnc(NC[C@@H]2CCCO2)nc1C1CCCC1 (single isomer, unassigned) | 25 nM
O=C(N[C@H]1C2CC3CC1C[C@](O)(C3)C2)c1cnc(NC2CCS(=O)(=O)CC2)nc1C1CCCC1 | 64 nM
O=C(N[C@H]1C2CC3CC1C[C@](O)(C3)C2)c1cnc(NC2CCOCC2)nc1C1CC1 | 22 nM
CC(=O)N1CCC(Nc2ncc(C(=O)N[C@H]3C4CC5CC3C[C@](O)(C5)C4)c(C3CCCC3)n2)CC1 | 84 nM
O=C(N[C@H]1C2CC3CC1C[C@](O)(C3)C2)c1cnc(N[C@@H]2CCOC2)nc1C1CCC1 | 37 nM
O=C(N[C@H]1C2CC3CC1C[C@](O)(C3)C2)c1cnc(NCCO)nc1OC1CCC1 | 31 nM
CN(C)C(=O)CNc1ncc(C(=O)N[C@H]2C3CC4CC2C[C@](O)(C4)C3)c(C2CCCC2)n1 | 163 nM
O=C(N[C@H]1C2CC3CC1C[C@](O)(C3)C2)c1cnc(NC2CCS(=O)(=O)CC2)nc1OC1CCC1 | 31 nM
CC(=O)N1CC[C@@H](Nc2ncc(C(=O)N[C@H]3C4CC5CC3C[C@](O)(C5)C4)c(C3CCCC3)n2)C1 | 50 nM
COCCNc1ncc(C(=O)N[C@H]2C3CC4CC2C[C@](O)(C4)C3)c(C2CCCC2)n1 | 73 nM
O=C(N[C@H]1C2CC3CC1C[C@](O)(C3)C2)c1cnc(NCCO)nc1C1CCCC1 | 179 nM
O=C(N[C@H]1C2CC3CC1C[C@](O)(C3)C2)c1cnc(NC2COC2)nc1OC1CCC1 | 33 nM
O=C(N[C@H]1C2CC3CC1C[C@](O)(C3)C2)c1cnc(N[C@@H]2CCOC2)nc1C1CCCC1 | 25 nM
O=C1CC[C@@H](Nc2ncc(C(=O)N[C@H]3C4CC5CC3C[C@](O)(C5)C4)c(C3CCCC3)n2)CN1 | 133 nM
C[C@@H](O)CNc1ncc(C(=O)N[C@H]2C3CC4CC2C[C@](O)(C4)C3)c(C2CCCC2)n1 | 67 nM
CC(C)(O)CNc1ncc(C(=O)N[C@H]2C3CC4CC2C[C@](O)(C4)C3)c(C2CCCC2)n1 | 48 nM

molecular target: 11-beta-hydroxysteroid dehydrogenase 1 (Homo sapiens, UniProt P28845); test: Inhibition of human 11beta-HSD1 by HTRF assay; details: not given
Sequence (P28845 whole entry): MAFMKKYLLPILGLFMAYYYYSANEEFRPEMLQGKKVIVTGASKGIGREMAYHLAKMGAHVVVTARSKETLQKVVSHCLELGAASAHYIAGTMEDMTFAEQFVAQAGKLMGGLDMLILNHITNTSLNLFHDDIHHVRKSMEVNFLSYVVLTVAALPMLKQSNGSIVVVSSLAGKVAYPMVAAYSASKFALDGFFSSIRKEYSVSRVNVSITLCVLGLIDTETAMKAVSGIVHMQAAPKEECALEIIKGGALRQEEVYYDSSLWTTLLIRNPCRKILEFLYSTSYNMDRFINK

Compound | IC50
O=C(N[C@H]1C2CC3CC1C[C@](O)(C3)C2)c1cnc(N[C@@H]2CCOC2)nc1C1CCCC1 | 21 nM

test system: not listed separately; test: Lipophilicity, log D at pH 7.4; format: physicochemical; details: buffer

Compound | logD
CC(C)(CO)Nc1ncc(C(=O)N[C@H]2C3CC4CC2C[C@](O)(C4)C3)c(C2CCCC2)n1 | 2.5
O=C(N[C@H]1C2CC3CC1C[C@](O)(C3)C2)c1cnc(N[C@H]2CCNC2=O)nc1C1CCCC1 | 0.9
O=C(N[C@H]1C2CC3CC1C[C@](O)(C3)C2)c1cnc(NC2CCOCC2)nc1C1CCCC1 | 2.6
O=C(N[C@H]1C2CC3CC1C[C@](O)(C3)C2)c1cnc(NC2CCS(=O)(=O)CC2)nc1C1CCC1 | 1.1
C[C@H](O)CNc1ncc(C(=O)N[C@H]2C3CC4CC2C[C@](O)(C4)C3)c(C2CCCC2)n1 | 2
O=C(N[C@H]1C2CC3CC1C[C@](O)(C3)C2)c1cnc(NC2COC2)nc1C1CCCC1 | 2.1
O=C(N[C@H]1C2CC3CC1C[C@](O)(C3)C2)c1cnc(N[C@@H]2CCOC2)nc1OC1CCC1 | 2.9
O=C(N[C@H]1C2CC3CC1C[C@](O)(C3)C2)c1cnc(N[C@H]2CCC[C@H]2O)nc1C1CCCC1 | 2.7
CC(C)(CO)Nc1ncc(C(=O)N[C@H]2C3CC4CC2C[C@](O)(C4)C3)c(C2CC2)n1 | 1.8
O=C(N[C@H]1C2CC3CC1C[C@](O)(C3)C2)c1cnc(NC2CCOCC2)nc1OC1CCC1 | 3.2
O=C(N[C@H]1C2CC3CC1C[C@](O)(C3)C2)c1cnc(N[C@H]2CCOC2)nc1C1CC1 | 1.7
CC(C)(O)CNc1ncc(C(=O)N[C@H]2C3CC4CC2C[C@](O)(C4)C3)c(C2CC2)n1 | 1.5
O=C(N[C@H]1C2CC3CC1C[C@](O)(C3)C2)c1cnc(NC2COC2)nc1C1CC1 | 1.1
CC(C)Oc1nc(NC2COC2)ncc1C(=O)N[C@H]1C2CC3CC1C[C@](O)(C3)C2 | 2.2
O=C(N[C@H]1C2CC3CC1C[C@](O)(C3)C2)c1cnc(NC[C@H]2CCCO2)nc1C1CCCC1 | 2.8
O=C(N[C@H]1C2CC3CC1C[C@](O)(C3)C2)c1cnc(N[C@H]2CCOC2)nc1C1CCC1 | 1.8
O=C(N[C@H]1C2CC3CC1C[C@](O)(C3)C2)c1cnc(N[C@H]2CCOC2)nc1OC1CCC1 | 2.8
O=C1C[C@H](CNc2ncc(C(=O)N[C@H]3C4CC5CC3C[C@](O)(C5)C4)c(C3CCCC3)n2)CN1 | 1.4
O=C(N[C@H]1C2CC3CC1C[C@](O)(C3)C2)c1cnc(NC[C@@H]2CCCO2)nc1C1CCCC1 (single isomer, unassigned) | 2.7
CC(C)Oc1nc(N[C@H]2CCOC2)ncc1C(=O)N[C@H]1C2CC3CC1C[C@](O)(C3)C2 | 2.5

Compound | logD
O=C(N[C@H]1C2CC3CC1C[C@](O)(C3)C2)c1cnc(NC2CCS(=O)(=O)CC2)nc1C1CCCC1 | 1.6
O=C(N[C@H]1C2CC3CC1C[C@](O)(C3)C2)c1cnc(NC2CCOCC2)nc1C1CC1 | 1.8
CC(=O)N1CCC(Nc2ncc(C(=O)N[C@H]3C4CC5CC3C[C@](O)(C5)C4)c(C3CCCC3)n2)CC1 | 1.9
O=C(N[C@H]1C2CC3CC1C[C@](O)(C3)C2)c1cnc(N[C@@H]2CCOC2)nc1C1CCC1 | 2
O=C(N[C@H]1C2CC3CC1C[C@](O)(C3)C2)c1cnc(NCCO)nc1OC1CCC1 | 2.5
CN(C)C(=O)CNc1ncc(C(=O)N[C@H]2C3CC4CC2C[C@](O)(C4)C3)c(C2CCCC2)n1 | 1.4
O=C(N[C@H]1C2CC3CC1C[C@](O)(C3)C2)c1cnc(NC2CCS(=O)(=O)CC2)nc1OC1CCC1 | 2.1
CC(=O)N1CC[C@@H](Nc2ncc(C(=O)N[C@H]3C4CC5CC3C[C@](O)(C5)C4)c(C3CCCC3)n2)C1 | 1.8
O=C(N[C@H]1C2CC3CC1C[C@](O)(C3)C2)c1cnc(NCCO)nc1C1CCC1 | 1.3
COCCNc1ncc(C(=O)N[C@H]2C3CC4CC2C[C@](O)(C4)C3)c(C2CCCC2)n1 | 2.4
O=C(N[C@H]1C2CC3CC1C[C@](O)(C3)C2)c1cnc(NCCO)nc1C1CCCC1 | 1.8
O=C(N[C@H]1C2CC3CC1C[C@](O)(C3)C2)c1cnc(NC2COC2)nc1OC1CCC1 | 2.6
O=C(N[C@H]1C2CC3CC1C[C@](O)(C3)C2)c1cnc(N[C@@H]2CCOC2)nc1C1CCCC1 | 2.4
O=C1CC[C@@H](Nc2ncc(C(=O)N[C@H]3C4CC5CC3C[C@](O)(C5)C4)c(C3CCCC3)n2)CN1 | 1.6
CC(C)Oc1nc(N[C@@H]2CCOC2)ncc1C(=O)N[C@H]1C2CC3CC1C[C@](O)(C3)C2 | 2.7
C[C@@H](O)CNc1ncc(C(=O)N[C@H]2C3CC4CC2C[C@](O)(C4)C3)c(C2CCCC2)n1 | 2
O=C(N[C@H]1C2CC3CC1C[C@](O)(C3)C2)c1cnc(N[C@@H]2CCOC2)nc1C1CC1 | 1.6
CC(C)(O)CNc1ncc(C(=O)N[C@H]2C3CC4CC2C[C@](O)(C4)C3)c(C2CCC2)n1 | 1.8
CC(C)(O)CNc1ncc(C(=O)N[C@H]2C3CC4CC2C[C@](O)(C4)C3)c(C2CCCC2)n1 | 2.3
